How the values were obtained:
Assay type in all cases: cell-based
BCL-XL = target: T1, BCL-XL (Homo sapiens, UniProt Q07817); assay: Bcl-xL ELISA degradation in MOLT-4 cells, 6 h; conditions: for DC50: read-out: Bcl-xL ELISA in MOLT-4 degradation 6 h: Mean external-Abs DC50
T1 construct: endogenous in cells; host or cells: MOLT-4
Procedure: The letter codes for BCL-XL DC50 include: A (<0.01 μM); B (0.01-0.1 μM); C (>[…]); D (>0.5-1.0 μM); and E (>1.0 μM). The letter codes for Dmax % include A (>75%); B (50 to 75%); C (<50%).

MOLT-4 cells = assay: CTG (CellTiter-Glo) cell viability assay, MOLT-4; conditions: Homo sapiens, MOLT-4, 72 h, 3 day incubation, read-out: CTG Cell Viability Assay - MOLT-4 3 day: Average external-IC50
In short: (§1)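 MOLT-4 and Caki-2 cells at 10,000 cells/well exposed 3 days at 37° C., 5% CO2 to 9 doses (1:3, top 10 μM, 0.2% DMSO). Viability by CellTiter-Glo luminescence; IC50 from three-parameter logistic fit.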

Caki-2 cells = assay: CTG (CellTiter-Glo) cell viability assay, Caki-2; conditions: Homo sapiens, 72 h, 3 day incubation, read-out: CTG Chempartner - Caki-2 3 day: Average external-IC50
In short: as §1

T1 sequence (Q07817 whole entry): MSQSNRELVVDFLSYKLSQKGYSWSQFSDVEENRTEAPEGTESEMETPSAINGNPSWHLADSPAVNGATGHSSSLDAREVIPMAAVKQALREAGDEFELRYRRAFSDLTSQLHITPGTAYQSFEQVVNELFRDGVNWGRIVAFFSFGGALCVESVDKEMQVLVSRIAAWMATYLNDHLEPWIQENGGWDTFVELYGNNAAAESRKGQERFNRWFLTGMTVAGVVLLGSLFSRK

Compound	Dmax (BCL-XL) [%]	DC50 (BCL-XL) [nM]	IC50 (MOLT-4 cells) [nM]	IC50 (Caki-2 cells) [nM]
Cc1ncsc1-c1ccc([C@H](C)NC(=O)[C@@H]2C[C@@H](O)CN2C(=O)[C@@H](NC(=O)C2CCC(O)(c3ccc(S(=O)(=O)NC(=O)c4nc(N5CCc6cccc(C(=O)Nc7nc8ccccc8s7)c6C5)ccc4-c4cnn(CC5CCCCC5)c4C)cc3)CC2)C(C)(C)C)cc1 (stereo partly shown) [I-314]	< 50	> 1000	100 to 1000	1000 to 10000
Cc1ncsc1-c1ccc([C@H](C)NC(=O)[C@@H]2C[C@@H](O)CN2C(=O)[C@@H](NC(=O)N2CC(CN3CCC(S(=O)(=O)NC(=O)c4nc(N5CCc6cccc(C(=O)Nc7nc8ccccc8s7)c6C5)ccc4-c4cnn(CC5CCCCC5)c4C)CC3)C2)C(C)(C)C)cc1 [I-336]	> 75	10 to 100	1000 to 3000	> 10000
C#Cc1ccc([C@H](CO)NC(=O)[C@@H]2C[C@@H](O)CN2C(=O)[C@@H](NC(=O)CCNCCS(=O)(=O)NC(=O)c2nc(N3CCc4cccc(C(=O)Nc5nc6cccnc6s5)c4C3)ccc2-c2cnn(CC3CCCCC3)c2C)C(C)(C)C)cc1 [I-378]	> 75	10 to 100	100 to 1000	> 10000
Cc1ncsc1-c1ccc([C@H](C)NC(=O)[C@@H]2C[C@@H](O)CN2C(=O)[C@@H](NC(=O)CCS(=O)(=O)NC(=O)c2nc(N3CCc4cccc(C(=O)Nc5nc6ccccc6s5)c4C3)ccc2-c2cnn(CC3CCCCC3)c2C)C(C)(C)C)cc1 [I-311]	> 75	100 to 500	< 100	1000 to 10000
Cc1ncsc1-c1ccc([C@H](C)NC(=O)[C@@H]2C[C@@H](O)CN2C(=O)[C@H](NC(=O)CCCCCCCS(=O)(=O)NC(=O)c2nc(N3CCc4cccc(C(=O)Nc5nc6ccccc6s5)c4C3)ccc2-c2cnn(CC34CC5CC(CC(C5)C3)C4)c2C)C(C)(C)C)cc1 [I-284]	> 75	< 10	< 100	100 to 1000
Cc1ncsc1-c1ccc([C@H](C)NC(=O)[C@@H]2C[C@@H](O)CN2C(=O)[C@@H](NC(=O)c2ccc(NC3CCCN(S(=O)(=O)NC(=O)c4nc(N5CCc6cccc(C(=O)Nc7nc8ccccc8s7)c6C5)ccc4-c4cnn(CC5CCCCC5)c4C)C3)cc2)C(C)(C)C)cc1 (stereo partly shown) [I-325]	50 to 75	100 to 500	< 100	1000 to 10000
C#Cc1ccc(CNC(=O)[C@@H]2C[C@@H](O)CN2C(=O)[C@H](c2cc(N3CCN(c4ccc(S(=O)(=O)NC(=O)c5nc(N6CCc7cccc(C(=O)Nc8nc9ccccc9s8)c7C6)ccc5-c5cnn(CC6CCCCC6)c5C)cc4)CC3)no2)C(C)C)cc1 [I-407]	50 to 75	100 to 500	100 to 1000	1000 to 10000
Cc1ncsc1-c1ccc([C@H](C)NC(=O)[C@@H]2C[C@@H](O)CN2C(=O)[C@@H](NC(=O)C2CCN(c3ccc(S(=O)(=O)NC(=O)c4nc(N5CCc6cccc(C(=O)Nc7nc8ccccc8s7)c6C5)ccc4-c4ccnc(N(C)C(C)C)c4C)cc3)CC2)C(C)(C)C)cc1 [I-332]	> 75	10 to 100	100 to 1000	> 10000
Cc1ncsc1-c1ccc([C@H](C)NC(=O)[C@@H]2C[C@@H](O)CN2C(=O)[C@@H](NC(=O)C2CN(c3ccc(S(=O)(=O)NC(=O)c4nc(N5CCc6cccc(C(=O)Nc7nc8ccccc8s7)c6C5)ccc4-c4cnn(CC5CCCCC5)c4C)cc3)C2)C(C)(C)C)cc1 [I-343]	> 75	10 to 100	< 100	1000 to 10000
Cc1ncsc1-c1ccc(CNC(=O)[C@@H]2C[C@@H](O)CN2C(=O)[C@@H](NC(=O)C2CCN(c3ccc(S(=O)(=O)NC(=O)c4nc(N5CCc6cccc(C(=O)Nc7nc8ccccc8s7)c6C5)ccc4-c4cnn(CC5CCCCC5)c4C)c(F)c3)CC2)C(C)(C)C)cc1 [I-339]	> 75	< 10	< 100	1000 to 10000
Cc1cc(N(C)c2ccc(-c3cnn(CC45CC6CC(CC(C6)C4)C5)c3C)c(C(=O)NS(=O)(=O)CCCCCC(=O)N[C@H](C(=O)N3C[C@H](O)C[C@H]3C(=O)NCc3ccc(-c4scnc4C)cc3)C(C)(C)C)n2)nnc1Nc1nc2ccccc2s1 [I-367]	> 75	10 to 100	< 100	> 10000
Cc1ncsc1-c1ccc([C@H](C)NC(=O)[C@@H]2C[C@@H](O)CN2C(=O)[C@@H](NC(=O)CCCCCS(=O)(=O)NC(=O)c2nc(N3CCc4cccc(C(=O)Nc5nc6ccccc6s5)c4C3)ccc2-c2cnn(CC3CCCC3)c2C)C(C)(C)C)cc1 [I-442]	> 75	10 to 100	< 100	> 10000
C#Cc1ccc(CNC(=O)[C@@H]2C[C@@H](O)CN2C(=O)[C@@H](NC(=O)CCc2ccc(S(=O)(=O)NC(=O)c3nc(N4CCc5cccc(C(=O)Nc6nc7ccccc7s6)c5C4)ccc3-c3cnn(CC(C)C)c3C)cc2)C(C)(C)C)cc1 [I-319]	50 to 75	> 1000	> 3000	> 10000

From patent publication US20250197387A1, “BCL-XL DEGRADERS AND USES THEREOF” (Kymera Therapeutics, Inc., priority 2021, published 2025)
